Columns and labels:
[1] = Stability test (high temperature, high humidity and light tests); type: physicochemical; settings: for stability (in words): high temperature, high humidity or light conditions for 10 days
Description: High temperature test: An appropriate amount of the test product was added into a flat weighing bottle and spread into a thin layer with thickness ≤5 mm. The bottle was placed at 60° C. or 40° C. for 10 days. Samples were taken at the 5th and 10th days to check the appearance, related substances and purity.
High humidity test: An appropriate amount of the test product was added into a flat weighing bottle and spread into a thin layer with thickness 5 mm. The bottle was placed at 25° C. and a relative humidity of 90%±5% for 10 days. Samples were taken at the 5th and 10th days to check the appearance, related substances and purity. At the same time, the weight of the test product before and after the test were accurately weighed to investigate the moisture absorption and deliquescence performance of the test product. Light test: An appropriate amount of the test product was added into a flat weighing bottle and spread into a thin layer with thickness ≤5 mm. The bottle was opened and placed in a light box (with UV) at the illuminance 4500±500 lx, UV light≥0.7 w/m^2 for 10 days. Samples were taken at the 5th and 10th days to check the appearance, related substances and purity.

[2] = Experimental research on hygroscopicity; type: physicochemical; settings: 25° C.±1° C., relative humidity 90%±2%, 24 hours
Description: A dry stoppered glass weighing bottle (outer diameter was 50 mm, height was 15 mm) was placed in a suitable constant temperature dryer (a saturated solution of ammonium chloride or ammonium sulfate was placed at the bottom, the relative humidity was within 90%±2%) at 25° C.±1° C. the day before, and the weighing bottle was precisely weighed (m1). An appropriate amount of the test product was spread flat in the above weighing bottle. The thickness of the test product was generally about 1 mm, and the weighing bottle was precisely weighed (m2). The weighing bottle was opened and placed for 24 hours under the above constant temperature and humidity conditions with the bottle cap. The weighing bottle was closed and precisely weighed (m3), and the weight gain percentage (%) was calculated. Testing method: According to Ph.

[3] = Pharmacokinetic evaluation of experimental animals after oral administration; type: in vivo, Beagle dogs; settings: for AUC0-t / Cmax: beagle dogs, oral via capsules, 10 mg/kg; for absorption in the body / in animals (in words): dog, in vivo; for exposure / pharmacokinetic properties (in words): experimental animals, oral
Description: Blood samples were taken at 0.25, 0.5, 1, 2, 4, 6, 8 and 24 hours from forelimb vein after the administration, and collected in anticoagulation tube with EDTA-K2. After liquid-liquid extraction, the blood samples were quantitatively analyzed on a triple quadrupole tandem mass spectrometer using multiple reactive ion monitoring (MRM). Pharmacokinetic parameters (AUC0-t and Cmax) were calculated using a noncompartmental method by WinNonLin 6.3 software.

[4] = High humidity (90% RH), 25° C., 5 days
[5] = High humidity (90% RH), 25° C., 10 days
[6] = High temperature (60° C.), 5 days
[7] = High temperature (60° C.), 10 days
[8] = Light (4500±500 lx, UV light≥0.7 w/m^2), 5 days
[9] = Light (4500±500 lx, UV light≥0.7 w/m^2), 10 days

Compound | Purity (%) ([1]; 0 days) | Purity (%) [1, 4] [%] | Purity (%) [1, 5] [%] | Purity (%) [1, 6] [%] | Purity (%) [1, 7] [%] | Purity (%) [1, 8] [%] | Purity (%) [1, 9] [%] | stability (in words) [1] | Weight gain of moisture absorption (%) [2] [%] | hygroscopicity judgment [2] | AUC0-t [3] [ng·h/mL] | Cmax [3] [ng/mL] | absorption in the body / in animals (in words) [3] | exposure / pharmacokinetic properties (in words) [3] | stability under high temperature (in words) ([1]; high temperature (such as 60° C.))
COC(=O)C1=C(CN2CCN3C(=O)N(c4ccc(CCC(=O)O)cc4F)C[C@@H]3C2)N=C(c2nccs2)N[C@H]1c1ccc(F)cc1Cl.Cl [3-(4-((S)-7-(((R)-6-(2-chloro-4-fluorophenyl)-5-(methoxycarbonyl)-2-(thiazol-2-yl)-1,6-dihydropyrimidin-4-yl)methyl)-3-oxohexahydroimidazo[1,5-a]pyrazine-2(3H)-yl)-3-fluorophenyl)prop ionic acid hydrochloride crystal form A] | 99.39 | 99.37 | 99.30 | 99.36 | 99.22 | 99.34 | 99.26 | very good | 1.32 | slightly hygroscopicity | 8630 | 4980 | better absorbed | higher exposure | –
Br.COC(=O)C1=C(CN2CCN3C(=O)N(c4ccc(CCC(=O)O)cc4F)C[C@@H]3C2)N=C(c2nccs2)N[C@H]1c1ccc(F)cc1Cl [3-(4-((S)-7-(((R)-6-(2-chloro-4-fluorophenyl)-5-(methoxycarbonyl)-2-(thiazol-2-yl)-1,6-dihydropyrimidin-4-yl)methyl)-3-oxohexahydroimidazo[1,5-a]pyrazine-2(3H)-yl)-3-fluorophenyl)propionic acid hydrobromide crystal form A] | 98.41 | 98.82 | 98.69 | 98.43 | 98.93 | 98.80 | 98.88 | very good | – | – | 5690 | 3340 | – | – | –
COC(=O)C1=C(CN2CCN3C(=O)N(c4ccc(CCC(=O)O)cc4F)C[C@@H]3C2)N=C(c2nccs2)N[C@H]1c1ccc(F)cc1Cl.CS(=O)(=O)O [3-(4-((S)-7-(((R)-6-(2-chloro-4-fluorophenyl)-5-(methoxycarbonyl)-2-(thiazol-2-yl)-1,6-dihydropyrimidin-4-yl)methyl)-3-oxohexahydroimidazo[1,5-a]pyrazine-2(3H)-yl)-3-fluorophenyl)propionic acid methanesulfonate crystal form A] | 99.40 | 99.37 | 99.36 | 99.15 | 98.68 | 99.37 | 99.40 | very good | – | – | – | – | – | – | –
COC(=O)C1=C(CN2CCN3C(=O)N(c4ccc(CCC(=O)O)cc4F)C[C@@H]3C2)NC(c2nccs2)=N[C@H]1c1ccc(F)cc1Cl.N=C(N)NCCC[C@H](N)C(=O)O [3-(4-((S)-7-(((R)-6-(2-chloro-4-fluorophenyl)-5-(methoxycarbonyl)-2-(thiazol-2-yl)-3,6-dihydropyrimidin-4-yl)methyl)-3-oxohexahydroimidazo[1,5-a]pyrazine-2(3H)-yl)-3-fluorophenyl)prop ionic acid L-arginine salt crystal form A] | 99.52 | 99.38 | 99.39 | 99.46 | 99.42 | 99.10 | 98.72 | very good | 1.34 | slightly hygroscopicity | 13100 | 6810 | better absorbed | higher exposure | –
CN(C)C=O.COC(=O)C1=C(CN2CCN3C(=O)N(c4ccc(CCC(=O)O)cc4F)C[C@@H]3C2)NC(c2nccs2)=N[C@H]1c1ccc(F)cc1Cl [3-(4-((S)-7-(((R)-6-(2-chloro-4-fluorophenyl)-5-(methoxycarbonyl)-2-(thiazol-2-yl)-3,6-dihydropyrimidin-4-yl)methyl)-3-oxohexahydroimidazo[1,5-a]pyrazine-2(3H)-yl)-3-fluorophenyl)prop ionic acid N,N-dimethylformamide complex] | 98.63 | 98.87 | 98.71 | 98.48 | 97.76 | 98.82 | 98.48 | very good | – | – | – | – | – | – | –
COC(=O)C1=C(CN2CCN3C(=O)N(c4ccc(CCC(=O)O)cc4F)C[C@@H]3C2)N=C(c2nccs2)N[C@H]1c1ccc(F)cc1Cl.O=P(O)(O)O [Phosphate crystal form A of the compound having Formula (Ia)] [3-(4-((S)-7-(((R)-6-(2-chloro-4-fluorophenyl)-5-(methoxycarbonyl)-2-(thiazol-2-yl)-1,6-dihydropyrimidin-4-yl)methyl)-3-oxohexahydroimidazo[1,5-a]pyrazine-2(3H)-yl)-3-fluorophenyl)prop ionic acid phosphate crystal form A] | 99.13 | 99.04 | 99.07 | 98.86 | 98.39 | 99.03 | 99.06 | very good | – | – | 4350 | 2690 | – | – | –
COC(=O)C1=C(CN2CCN3C(=O)N(c4ccc(CCC(=O)O)cc4F)C[C@@H]3C2)N=C(c2nccs2)N[C@H]1c1ccc(F)cc1Cl.O=P(O)(O)O [Phosphate crystal form C of the compound having Formula (Ia)] [3-(4-((S)-7-(((R)-6-(2-chloro-4-fluorophenyl)-5-(methoxycarbonyl)-2-(thiazol-2-yl)-1,6-dihydropyrimidin-4-yl)methyl)-3-oxohexahydroimidazo[1,5-a]pyrazine-2(3H)-yl)-3-fluorophenyl)prop ionic acid phosphate crystal form C] | 99.34 | 99.29 | 99.36 | 87.42 | 60.31 | 99.30 | 99.30 | – | – | – | 1900 | 907 | – | – | unstable
COC(=O)C1=C(CN2CCN3C(=O)N(c4ccc(CCC(=O)O)cc4F)C[C@@H]3C2)N=C(c2nccs2)N[C@H]1c1ccc(F)cc1Cl.O=S(=O)(O)O [Sulfate crystal form A of the compound having Formula (Ia)] [3-(4-((S)-7-(((R)-6-(2-chloro-4-fluorophenyl)-5-(methoxycarbonyl)-2-(thiazol-2-yl)-1,6-dihydropyrimidin-4-yl)methyl)-3-oxohexahydroimidazo[1,5-a]pyrazine-2(3H)-yl)-3-fluorophenyl)prop ionic acid sulfate crystal form A] | 99.14 | 99.17 | 99.22 | 99.16 | 99.12 | 99.17 | 99.15 | very good | – | – | – | – | – | – | –
COC(=O)C1=C(CN2CCN3C(=O)N(c4ccc(CCC(=O)O)cc4F)C[C@@H]3C2)N=C(c2nccs2)N[C@H]1c1ccc(F)cc1Cl.O=S(=O)(O)O [Sulfate crystal form B of the compound having Formula (Ia)] [3-(4-((S)-7-(((R)-6-(2-chloro-4-fluorophenyl)-5-(methoxycarbonyl)-2-(thiazol-2-yl)-1,6-dihydropyrimidin-4-yl)methyl)-3-oxohexahydroimidazo[1,5-a]pyrazine-2(3H)-yl)-3-fluorophenyl)prop ionic acid sulfate crystal form B] | 98.98 | 98.90 | 98.94 | 98.94 | 98.68 | 99.01 | 98.91 | very good | 0.97 | slightly hygroscopicity | 10840 | 6620 | better absorbed | higher exposure | –

From US20240025905A1, “SALTS OF DIHYDROPYRIMIDINE DERIVATIVES, COMPLEXES AND USES THEREOF IN MEDICINE” (SUNSHINE LAKE PHARMA CO., LTD., priority 2020, published 2024)
